Converted amounts (≈) assume the structure as drawn. Counter-ions that a name gives are not always drawn. Like-named read-outs stand apart in the source and are kept apart here.
Assays:
[1] = test system: Enterobacter cloacae GN7471; experiment: minimum inhibitory concentration (MIC); type: cell-based
Procedure: (§1) The minimum inhibitory concentration (MIC) of the compounds obtained in the above Examples were measured according to the standard method of Japan Society of Chemotherapy.

[2] = test system: Citrobacter freundii 5D60-1; experiment: minimum inhibitory concentration (MIC); type: cell-based
Procedure: as §1

[3] = test system: Pseudomonas aeruginosa 4au542; experiment: minimum inhibitory concentration (MIC); type: cell-based; details: Tables 2A, 2B
Procedure: as §1

[4] = test system: Citrobacter freundii 1U592; experiment: minimum inhibitory concentration (MIC); type: cell-based
Procedure: as §1

[5] = test system: Citrobacter freundii 1R523; experiment: minimum inhibitory concentration (MIC); type: cell-based
Procedure: as §1

[6] = test system: Citrobacter freundii 1R527; experiment: minimum inhibitory concentration (MIC); type: cell-based
Procedure: as §1

[7] = test system: Escherichia coli GN5482; experiment: minimum inhibitory concentration (MIC); type: cell-based; details: Tables 2A, 2B
Procedure: as §1

[8] = test system: Pseudomonas aeruginosa GN10362; experiment: minimum inhibitory concentration (MIC); type: cell-based; details: Tables 2A, 2B
Procedure: as §1

[9] = test system: Enterobacter cloacae IV25; experiment: minimum inhibitory concentration (MIC); type: cell-based
Procedure: as §1

[10] = test system: Citrobacter freundii 1R524; experiment: minimum inhibitory concentration (MIC); type: cell-based
Procedure: as §1

[11] = test system: Serratia marcescens GN10857; experiment: minimum inhibitory concentration (MIC); type: cell-based; details: Tables 2A, 2B
Procedure: as §1

[12] = test system: Pseudomonas cepacia OF189; experiment: minimum inhibitory concentration (MIC); type: cell-based; details: Burkholderia cepacia, Tables 2A, 2B
Procedure: as §1

[13] = test system: Citrobacter freundii GM7391; experiment: minimum inhibitory concentration (MIC); type: cell-based
Procedure: as §1

[14] = test system: Pseudomonas aeruginosa 5D58-1; experiment: minimum inhibitory concentration (MIC); type: cell-based; details: 5D581, Tables 2A, 2B
Procedure: as §1

[15] = test system: Pseudomonas maltophilia OF247; experiment: minimum inhibitory concentration (MIC); type: cell-based; details: Stenotrophomonas maltophilia, Tables 2A, 2B
Procedure: as §1

[16] = test system: Citrobacter freundii GN7391; experiment: minimum inhibitory concentration (MIC); type: cell-based
Procedure: as §1

[17] = test system: Citrobacter freundii 1R526; experiment: minimum inhibitory concentration (MIC); type: cell-based
Procedure: as §1

[18] = test system: Escherichia coli ML4704; experiment: minimum inhibitory concentration (MIC); type: cell-based
Procedure: as §1

[19] = test system: Proteus vulgris GN7919; experiment: minimum inhibitory concentration (MIC); type: cell-based
Procedure: as §1

[20] = test system: Citrobacter freundii 1U589; experiment: minimum inhibitory concentration (MIC); type: cell-based
Procedure: as §1

[21] = test system: Enterobacter cloacae 908RN; experiment: minimum inhibitory concentration (MIC); type: cell-based
Procedure: as §1

[22] = test system: Klebsiella pneumoniae 4at521; experiment: minimum inhibitory concentration (MIC); type: cell-based; details: Tables 2A, 2B
Procedure: as §1

[23] = test system: Staphylococcus aureus Smith; experiment: minimum inhibitory concentration (MIC), standard method of Japan Society of Chemotherapy; type: cell-based; details: Tables 2A, 2B
Procedure: as §1

[24] = among existing cephalosporins; known; cited from earlier work
[25] = in vivo; parameters: species or system cynomolgus monkeys; details: cynomolgus monkey, 20 mg/kg
Procedure: 20 mg/kg of compound obtained in the above Example 18 was administered parenterally to cynomolgus monkeys and the half-life in blood was measured.
The concentration of the compound was measured according to HPLC method. Novapack C18 or Microbondapack C18 (both trade name, produced by Waters Co.) was used for analysis. Further, cefpiramide was used as a control drug.

[26] = test system: Staphylococcus aureus IAA498; experiment: minimum inhibitory concentration (MIC); type: cell-based; details: Tables 2A, 2B
Procedure: as §1

[27] = test system: Enterobacter cloacae IY247; experiment: minimum inhibitory concentration (MIC); type: cell-based
Procedure: as §1

[28] = test system: Enterobacter cloacae 5D52-2; experiment: minimum inhibitory concentration (MIC); type: cell-based; details: 5D522
Procedure: as §1

[29] = test system: Enterobacter cloacae 5D83-2; experiment: minimum inhibitory concentration (MIC); type: cell-based; details: 5D832
Procedure: as §1

[30] = Escherichia coli ML4704, Tables 2A, 2B, read-out: MIC
[31] = Enterobacter cloacae 908RN, Tables 2A, 2B
[32] = Enterobacter cloacae GN7471, Tables 2A, 2B, read-out: MIC
[33] = Citrobacter freundii GN7391, Tables 2A, 2B, read-out: MIC
[34] = Proteus vulgris GN7919, Tables 2A, 2B, read-out: MIC

Compound | MIC ([1]; Enterobacter cloacae, GN7471) [µg/mL] | MIC [3] [µg/mL] | MIC [7] [µg/mL] | MIC [8] [µg/mL] | MIC [11] [µg/mL] | MIC [12] [µg/mL] | MIC [14] [µg/mL] | MIC [15] [µg/mL] | MIC ([16]; Citrobacter freundii, GN7391) [µg/mL] | MIC [18, 30] [µg/mL] | MIC [19] [µg/mL] | MIC [21, 31] [µg/mL] | MIC [22] [µg/mL] | MIC [23] [µg/mL] | half-life [25] [h] | MIC [1, 32] [µg/mL] | MIC [26] [µg/mL] | MIC [16, 33] [µg/mL] | MIC [19, 34] [µg/mL] | also measured
CC(C)(O/N=C(\C(=O)N[C@@H]1C(=O)N2C(C(=O)[O-])=C(C[n+]3ccccc3)CS[C@H]12)c1csc(N)n1)C(=O)O [CAZ, ceftazidime, reference compound] | 3.13 (≈ 5.73 µM) | 3.13 (≈ 5.73 µM) | 1.56 (≈ 2.85 µM) | 1.56 (≈ 2.85 µM) | 3.13 (≈ 5.73 µM) | 6.25 (≈ 11.4 µM) | 1.56 (≈ 2.85 µM) | 3.13 (≈ 5.73 µM) | > 100 | 0.05 (≈ 0.0915 µM) | 1.56 (≈ 2.85 µM) | 100 (≈ 183 µM) | 0.1 (≈ 0.183 µM) | 6.25 (≈ 11.4 µM) | – | – | – | – | – | MIC ([2]; 5D601): > 100 µg/mL; MIC [4]: 100 µg/mL (≈ 183 µM); MIC [5]: 25 µg/mL (≈ 45.7 µM); MIC [6]: 25 µg/mL (≈ 45.7 µM); MIC [9]: 50 µg/mL (≈ 91.5 µM); MIC [10]: 25 µg/mL (≈ 45.7 µM); MIC [13]: > 100 µg/mL; MIC [17]: 25 µg/mL (≈ 45.7 µM); MIC [20]: 100 µg/mL (≈ 183 µM); MIC ([21]; Enterobacter cloacae 908RN, Table 3, clinical isolates resistant to ceftazidime): > 100 µg/mL
Cc1cc(O)c(C(=O)N[C@@H](C(=O)N[C@@H]2C(=O)N3C(C(=O)O)=C(CSc4nnnn4C)CS[C@H]23)c2ccc(O)cc2)cn1 [Cefpiramide, cefpiramide, reference compound] | – | – | – | – | – | – | – | – | – | – | – | – | – | – | 2.5 | – | – | – | – | half-life in blood [24]: long half-life in blood
Cc1cc(SCC2=C(C(=O)O)N3C(=O)C(NC(=O)C(=NOC(C)(C)C(=O)NNC(=O)c4ccc(O)c(O)c4)c4csc(N)n4)C3SC2)n2nc(CO)nc2n1 (stereo not shown) [Example 18, 7-{2-[2-amino-1,3-thiazol-4-yl]-2-[1-(3-(3,4-dihydroxybenzoyl)carbazoyl)-1-methylethoxyimino]acetamide}-3-[(2-hydroxymethyl-5-methyl-s-triazolo[1,5-a]pyrimidin-7-yl)thiomethyl]-3-cephem-4-carboxylic acid.sodium salt] | – | 0.2 | 0.025 | 0.05 | 0.78 | 0.025 | 0.05 | 0.39 | – | 0.012 | – | – | 0.012 | 1.56 | 2.6 | 6.25 | 6.25 | 12.5 | 1.56 | MIC ([2]; 5D601, read-out: MIC): 1.56 µg/mL; MIC ([4]; read-out: MIC): 25 µg/mL; MIC ([5]; read-out: MIC): 0.78 µg/mL; MIC [27]: 6.25 µg/mL; MIC ([6]; read-out: MIC): 0.2 µg/mL; MIC ([9]; read-out: MIC): 1.56 µg/mL; MIC ([10]; read-out: MIC): 0.39 µg/mL; MIC [28]: 0.39 µg/mL; MIC ([13]; read-out: MIC): 6.25 µg/mL; MIC ([17]; read-out: MIC): 0.39 µg/mL; MIC [29]: 0.78 µg/mL; MIC ([20]; read-out: MIC): 1.56 µg/mL; MIC ([21]; Enterobacter cloacae 908RN, Table 3, clinical isolates resistant to ceftazidime, read-out: MIC): 12.5 µg/mL; MIC ([21]; Enterobacter cloacae 908RN, Tables 2A, 2B, read-out: MIC): 6.25 µg/mL
Cc1cc(SCC2=C(C(=O)[O-])N3C(=O)C(NC(=O)C(=NOC(C)(C)C(=O)NN=Cc4ccc(O)c(O)c4)c4csc(N)n4)[C@H]3SC2)n2nc(CO)nc2n1.[Na+] (stereo partly shown) [Example 44, sodium 7-{2-[2-amino-1,3-thiazol-4-yl]-2-[1-(3-(3,4-dihydroxybenzylidene)carbazoyl)-1-methylethoxyimino]acetamido}-3-[(2-hydroxymethyl-5-methyl-s-triazolo[1,5-a]pyrimidin-7-yl)thiomethyl]-3-cephem-4-carboxylate] | 1.56 | 0.78 | 0.1 | 0.78 | 0.78 | 0.2 | 0.39 | 12.5 | 12.5 | – | 12.5 | – | 0.39 | 3.13 | – | – | 6.25 | – | – | MIC ([18]; Escherichia coli, ML4704): 0.39 µg/mL; MIC [21]: 12.5 µg/mL
COCc1nc2nc(C)cc(SCC3=C(C(=O)O)N4C(=O)C(NC(=O)C(=NOC(C)(C)C(=O)NN)c5csc(N)n5)C4SC3)n2n1 (stereo not shown) [Example 47] | – | > 100 | 0.78 (≈ 1.13 µM) | 50 (≈ 72.3 µM) | 100 (≈ 145 µM) | 100 (≈ 145 µM) | 50 (≈ 72.3 µM) | 100 (≈ 145 µM) | – | 0.2 (≈ 0.289 µM) | – | > 100 | 6.25 (≈ 9.03 µM) | 6.25 (≈ 9.03 µM) | – | 50 (≈ 72.3 µM) | 12.5 (≈ 18.1 µM) | > 100 | 50 (≈ 72.3 µM) | –
